From patent publication US20100130581A1, “COMPOUNDS AND METHODS FOR THE TREATMENT OF PAIN” (THE UNIVERSITY OF QUEENSLAND, priority 2006, published 2010)
“Also recorded” adds a separate entry of the source. Where a SMILES comes first, the peptide text is derived from it. [ ]: non-standard residue; d: D form. ξ: configuration not given here. Dmt = Cc1cc(O)cc(C)c1C[C@H](N)C(=O)O; ξGly(decyl) = CCCCCCCCCCC(N)C(=O)O; ξGly(octyl) = CCCCCCCCC(N)C(=O)O; ξAoc(2) = CCCCCCC(N)C(=O)O

Assays:
[1] = test system: homogenate of Caco-2 cells; test: Enzymatic stability study in homogenized Caco-2 cells; assay type: in vitro ADME; settings: Caco-2 cell line; graded by number of ♦ (up to 5), key not given
Procedure: Approximately 1×10^5 cells/mL concentration of cells were seeded onto the 96 well plate. […] The media was changed every other day. 21-28 days old cells were used for the experiments. the media was removed from the wells and each well washed with 100 μL 0.2% EDTA solution followed by washing three times with Hanks' balanced salt solution (HBSS) containing 25 mM Hepes (pH 7.4). Finally, 100 μL of this buffer was placed in each well and the plate cooled in ice. The monolayer of cells in each well was then disrupted by 2×1 second pulses with a Sonics Vibracell ultrasonic processor set at an amplitude of 30. The cell debris was then removed by centrifugation of the plate at 2000 rpm for 5 min. 80 μL cell homogenate supernatant of each well was then transferred to a clean 96 well plate, and 20 μL of HBSS-Hepes was added. Three of the wells' contents were set aside and assayed for total protein content using the Lowry assay. The compounds to be tested were dissolved in HBSS-Hepes buffer to a concentration of 200 μM.
This assay was performed at 37° C. […] The stability assay on each compound was conducted in triplicate and the concentrations averaged for each time point.

[2] = test system: μ- and δ-opioid receptors; test: Cell based assay of cAMP inhibition in forskolin treated SH-SY5Y cells; settings: for IC50: Efficacy SH-SY5Y cell line; for Inhibit c-AMP (%): SH-SY5Y cell line, normalised to the % of cAMP inhibition seen by native endomorphin-1
Procedure: SH-SY5Y cells endogenously expressing μ- and δ-opioid receptors were cultured (100 μl) in a 96 well-plate and incubated (usually overnight) until 80% confluent. Once cells were ready for assay, Endo-1, Endo-2 and derivatives/analogs were diluted in DMEM culture medium containing 30 μM forskolin. The diluted derivatised endomorphins or derivatised endomorphin analogs were then applied to separate wells for agonist studies and co-incubated for antagonist studies. Cells were incubated with derivatised endomorphins or derivatised endomorphin analogs at 37° C. for 30 minutes, medium was aspirated and cells were lysed using lysis buffer from a cAMP Biotrak EIA kit (Amersham, Buckinghamshire, UK). An anti-cAMP antibody was added to the lysate, and the mixture incubated at 4° C. for 2 hours followed by the addition of a cAMP peroxidase conjugate, and incubated at 4° C. for a further hour. A 3,3′5,5′-tetramethylbenzidine (TMB) substrate provided by the Biotrak EIA kit was then incubated with cell lysate for 1 hour and finally 1 […] was added to facilitate a colour change, which is proportional to the amount of cAMP captured. A cAMP standard curve from 0 to 3200 fmol was also generated concurrently. Plates were then read by a plate reader at 450 nm and compared back to the cAMP standard curve. All data are compared to the maximum cAMP response to forskolin and are represented as the mean+/−standard error of three experiments performed in triplicate. All data are plotted using PRISM program (GraphPad, San Diego, Calif.) (see FIGS. 2a and 2b).

[3] = biological target: T1, μ-opioid receptor (Homo sapiens, UniProt P35372); test: Whole cell-based binding assay, displacement of 3H-DAMGO
T1 construct: SH-SY5Y cells endogenously expressing μ- and δ-opioid receptors; endogenous in cells; host or cells: SH-SY5Y cells
T1 sequence (P35372 whole entry): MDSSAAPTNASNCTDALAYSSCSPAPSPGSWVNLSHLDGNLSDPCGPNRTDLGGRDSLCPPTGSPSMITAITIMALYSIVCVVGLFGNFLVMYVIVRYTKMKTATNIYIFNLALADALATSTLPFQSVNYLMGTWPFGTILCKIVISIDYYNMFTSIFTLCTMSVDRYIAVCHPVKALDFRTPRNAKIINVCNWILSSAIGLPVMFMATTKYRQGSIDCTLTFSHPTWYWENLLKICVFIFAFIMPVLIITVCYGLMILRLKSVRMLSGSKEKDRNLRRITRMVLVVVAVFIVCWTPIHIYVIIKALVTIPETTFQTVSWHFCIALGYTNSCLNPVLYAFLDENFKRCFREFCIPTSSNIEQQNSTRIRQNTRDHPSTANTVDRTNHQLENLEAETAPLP
Procedure: Media was removed and cells were washed with PBS before pre-incubation in 300 μL of binding buffer. Binding studies were performed with 100 μL of appropriate concentrations of ^3H-labeled DAMGO (a selective μ-opioid receptor agonist) and 100 μL of competitor or blank in binding buffer at 37° C. for 60 min. Competition binding experiments were performed using […] of ^3H-labelled DAMGO in the absence or presence of increasing concentrations of unlabeled derivatised endomorphins or derivatised endomorphin analogs. A 1 μM excess of unlabelled DAMGO was used to determine non-specific binding. Following incubation, the cells were washed with PBS and recovered from culture plates using 500 μL of […] before transfer to scintillation vials. Liquid scintillation cocktail (Ultima Gold, Packard, Meriden, USA) was added to these vials for counting in a liquid scintillation analyser. Data are expressed as the mean±SEM of % specific binding of triplicate determinations performed on at least three independent plates of cells. Data were plotted using the one-site competition functions of the PRISM program (Graphpad Inc., San Diego, USA) (see FIGS. 1a, 1b and 7).

[4] = Plasma stability assay; assay type: in vitro ADME; settings: male, human, plasma at 37° C.
Procedure: To measure the enzymatic stability of endomorphin-1 analogs in plasma, blood was taken from a healthy volunteer and the blood was centrifuged at 1700 rpm for 30 minutes to remove blood cells. The plasma was placed into a water bath heated at 37° C. and Endomorphin-1 and analog was added to give final concentrations of 0.7 mg/mL. Samples were incubated for varying time periods between 0 and 180 minutes. 50 μL of sample was taken at each time-point and 75 μL of acetonitrile was added to quench any enzyme activity. The samples were then placed on ice and upon completion of the assay, all samples were centrifuged at 9000 rpm for 3 minutes to remove all precipitated plasma proteins. The amount of intact peptide remaining in the supernatent of each sample was determined using RP HPLC by measuring the area under the curve of the peak at the appropriate retention time compared to a standard curve of concentration for each peptide (see FIG. 8).

[5] = test system: gastrointestinal motility; test: Gut motility study (charcoal meal); assay type: in vivo, rat; settings: rats
Procedure: Each dose of Compound 8, morphine and vehicle was administered to naïve rats as a 100 μL i.v. bolus injection via an indwelling cannula surgically implanted into the jugular vein at least 12 h prior to dose administration. Rats were anaesthetised with 3% isoflurane: 97% oxygen inhalational anaesthetic. A 1 cm incision was made on the right ventral side of the trachea. Using blunt dissection, the jugular vein was exposed and a small incision made to allow cannula insertion. The cannula was inserted into the vein, its integrity assessed, and tied into place using sterile sutures. The wound was sutured, the cannula was exteriorised at the back of the neck and secured using a metal spring. The rats were kept warm during surgical recovery. Animals were housed singly for the remainder of the experimentation period. Rats were inspected regularly from the time of surgery with respect to exploring behaviour, body weight and water intake. No adverse signs from the surgery were observed.
Charcoal meal was prepared by mixing 10% charcoal and 5% arabic gum in distilled, deionised water. Each rat received a single oral gavage of charcoal meal. Thirty minutes later the animal was euthanised using CO2 asphyxiation and the intestine was removed and measured. The distance from the pyloric sphincter to the caudal end of the charcoal and the total distance of the small intestine to the distal part of the ileum were measured in cm. Gastrointestinal motility was determined as the distance traveled by the charcoal relative to the total length of the small intestine, expressed as a percentage.
Each rat received a single bolus i.v. dose of Compound 8, morphine or vehicle. Animals received either vehicle (n=5), morphine at 1 mg/kg (n=3), 2 mg/kg (n=5), 10 mg/kg (n=5) and 30 mg/kg (n=2) or Compound 8 at 0.3 mg/kg (n=3), 1 mg/kg (n=5), 3 mg/kg (n=4), and 10 mg/kg (n=3). Thirty minutes after i.v. dosing an oral gavage of charcoal meal was administered under light (50%:50% CO2:O2) anaesthesia. Thirty minutes later the animal was euthanised via CO2 asphyxiation and the intestine was removed and the distance moved by the charcoal meal was measured.
The intestine was measured for distance of charcoal meal traveled in the small intestine and total length of small intestine. The % distance of charcoal transit was assessed relative to the total length of the small intestine. % inhibition of gastrointestinal motility by morphine or Compound 8 was calculated by the following equation: [(average % charcoal transit in vehicle rats)−(% distance charcoal transit)×100]/(average % charcoal transit in vehicle rats).

[6] = test system: CCI-rats; test: Pain relief in CCI-rat model of neuropathic pain (von Frey paw withdrawal thresholds); assay type: in vivo

## CCCCCCC(NC(=O)[C@H](Cc1ccccc1)NC(=O)[C@H](Cc1c[nH]c2ccccc12)NC(=O)[C@@H]1CCCN1C(=O)[C@@H](N)Cc1ccc(O)cc1)C(N)=O (some centres unmarked) [Compound 19] (H-YPWF[ξAoc(2)]-NH2)
[1]
  Enzymatic stability 2 h: ♦

## CCCCCCCCCCC(N)C(=O)N[C@@H](Cc1c(C)cc(O)cc1C)C(=O)N1CCC[C@H]1C(=O)N[C@@H](Cc1c[nH]c2ccccc12)C(=O)N[C@@H](Cc1ccccc1)C(N)=O (some centres unmarked) [Compound 9] (H-[ξGly(decyl)][Dmt]PWF-NH2)
[2]
  IC50: 0.928 nM
[3]
  Ki: 0.735 nM
[4]
  half-life at 0.7 mg/mL: 20.3 min

## CCCCCCC(N)C(=O)N[C@@H](Cc1c(C)cc(O)cc1C)C(=O)N1CCC[C@H]1C(=O)N[C@@H](Cc1c[nH]c2ccccc12)C(=O)N[C@@H](Cc1ccccc1)C(N)=O (single isomer, unassigned) [Compound 7]
[2]
  IC50: 0.189 nM
  Inhibit c-AMP (%): 153%
[3]
  Ki: 0.071 nM
[4]
  half-life at 0.7 mg/mL: 4.55 min

## CCCCCCC(N)C=N[C@@H](Cc1ccc(O)cc1)C(=O)N1CCC[C@H]1C(=O)N[C@@H](Cc1c[nH]c2ccccc12)C(=O)N[C@@H](Cc1ccccc1)C(N)=O (some centres unmarked) [Compound 10]
[3]
  Ki: 42.4 nM

## CCCCCCCCC(N)C(=O)N[C@@H](Cc1c(C)cc(O)cc1C)C(=O)N1CCC[C@H]1C(=O)N[C@@H](Cc1c[nH]c2ccccc12)C(=O)N[C@@H](Cc1ccccc1)C(N)=O (some centres unmarked) [Compound 8] (H-[ξGly(octyl)][Dmt]PWF-NH2)
[2]
  IC50: 0.0634 nM
[5]; i.v., 10 mg/kg
  % inhibition of gastrointestinal transit, compared with i.v. morphine: did not differ significantly (p>0.05)
[5]; single bolus i.v. doses, FIG. 15
  average gradient of log dose vs. % inhibition of gastrointestinal motility curve: lower than the average gradient for the curve corresponding to morphine
[5]; single i.v. bolus, 0.3, 1, 3 and 10 mg/kg
  inhibition of gastrointestinal motility, in words: inhibited gastrointestinal motility at all doses assessed
[3]
  Ki: 0.47 nM
[6]; contralateral hindpaw, CCI-rats, i.v., Endo1 1 mg/kg, Compound 8 0.3-3 mg/kg
  antinociception / baseline PWT responses, in words: did not significantly alter baseline PWT responses; also recorded: no significant antinociception in the contralateral hindpaw
[6]; contralateral hindpaw, drug-naïve CCI-rats, i.v., Endo1 1.6 μmol/kg, Compound 8 1.2 μmol/kg
  baseline PWT responses, in words: did not significantly alter baseline PWT responses
[6]; contralateral hindpaw, s.c., 0.3-3 mg/kg, vs vehicle
  anti-nociceptive effect, in words: did not produce a significant, dose-dependent anti-nociceptive effect; also recorded: did not produce dose-dependent anti-nociceptive pain relief
[6]; drug-naïve CCI-rats, ipsilateral hindpaw, i.v.
  extent and duration of anti-allodynia compared with Endo1: significantly (p<0.05) larger extent and duration of anti-allodynia
[6]; ipsilateral hindpaw, CCI-rats, single bolus i.v. doses, vs vehicle
  anti-allodynic effect, in words: significant, dose-dependent anti-allodynic effect; also recorded: dose-dependent relief of tactile allodynia
[6]; ipsilateral hindpaw, CCI-rats, single bolus s.c. doses 0.1-10 mg/kg, vs vehicle
  anti-allodynic effect, in words: significant, dose-dependent anti-allodynic effect; also recorded: dose-dependent relief of tactile allodynia
[6]; ipsilateral hindpaw, i.v., CCI-rats, over 3 h
  dose-normalised area under the anti-allodynic response versus time curve (AUC), in words: significantly greater (p<0.05) than that of both Endo1 and vehicle
[6]; ipsilateral hindpaw, i.v., highest dose tested
  time of mean peak anti-allodynic response: ~0.5 h
[6]; ipsilateral hindpaw, i.v., highest dose tested (3 mg/kg)
  mean duration of action: > 3 h
[6]; ipsilateral hindpaw, i.v., lower doses (0.1 and 0.3 mg/kg)
  mean duration of action: 2 to 3 h
[6]; ipsilateral hindpaw, i.v., over doses tested
  time of mean peak anti-allodynic response: 0.5 to 1 h
[6]; ipsilateral hindpaw, s.c., 0.1-10 mg/kg
  time of mean peak anti-allodynic response: 0.5 to 1 h
[6]; ipsilateral hindpaw, s.c., highest dose tested
  time of mean peak anti-allodynic response: ~0.5 h
[4]
  half-life at 0.7 mg/mL: 41.4 min

## CCCCCCCCCCC(N)C(=O)N[C@@H](Cc1ccc(O)cc1)C(=O)N1CCC[C@H]1C(=O)N[C@@H](Cc1c[nH]c2ccccc12)C(=O)N[C@@H](Cc1ccccc1)C(N)=O (some centres unmarked) [Compound 2] (H-[ξGly(decyl)]YPWF-NH2)
[2]
  Inhibit c-AMP (%): 89%
[3]
  Ki: 35.5 nM

## CN1CC[C@]23c4c5ccc(O)c4O[C@H]2[C@@H](O)C=C[C@H]3[C@H]1C5 [morphine, reference compound]
[5]; single i.v. bolus, 1 and 2 mg/kg
  inhibition of gastrointestinal motility, in words: did not significantly (p>0.05) inhibit gastrointestinal motility
[5]; single i.v. bolus, 10 and 30 mg/kg
  inhibition of gastrointestinal transit, in words: significant (p<0.05) inhibition of gastrointestinal transit
